Reference: patent US20240050428A1 (Cullgen (Shanghai), Inc., priority 2020, published 2024)
Like-named read-outs stand apart in the source and are kept apart here.

Legend:
MV4;11 cells = test: Cell viability assay (CellTiter-Glo) in MV4;11 cells, alone or with gilteritinib; format: cell-based; conditions: Homo sapiens, MV4-11, 72 h, read-out: MV4
MOLM-13 cells = test: Cell viability assay (CellTiter-Glo) in MOLM-13 cells, alone or with gilteritinib; format: cell-based; conditions: Homo sapiens, MOLM-13, 72 h
[1] = MV4;11 cells, compound alone (without gilteritinib), three days, CellTiter-Glo, 11 IC50
[2] = MV4;11 cells, with gilteritinib 10 nM, three days, CellTiter-Glo, 11 IC50 gilteritinib
[3] = MOLM-13 cells, compound alone (without gilteritinib), three days, CellTiter-Glo, read-out: MOLM-13 IC50
[4] = MOLM-13 cells, with gilteritinib 20 nM, three days, CellTiter-Glo, read-out: MOLM-13 IC50 gilteritinib

O=C1CCC(N2C(=O)c3ccc(NCCCCCC(=O)N4CCC(n5cc(-c6cnc7cccc(C8CCOCC8)c7n6)cn5)CC4)cc3C2=O)C(=O)N1 (stereo not drawn) [GS-043, 2-(2,6-Dioxopiperidin-3-yl)-5-((6-oxo-6-(4-(4-(8-(tetrahydro-2H-pyran-4-yl)quinoxalin-2-yl)-1H-pyrazol-1-yl)piperidin-1-yl)hexyl)amino)isoindoline-1,3-dione] showed an IC50 (MV4;11 cells; [1]) of 0.01 to 0.1 µM, an IC50 (MV4;11 cells; [2]) of less than 0.01 µM and an IC50 (MOLM-13 cells; [3]) of 0.01 to 0.1 µM. The IC50 (MOLM-13 cells; [4]) was less than 0.01 µM.

O=C1CCC(N2C(=O)c3ccc(NCCCCCC(=O)N4CCC(n5cc(-c6cnc7cccc(C8CCNCC8)c7n6)cn5)CC4)cc3C2=O)C(=O)N1 (stereo not drawn) [GS-044, 2-(2,6-dioxopiperidin-3-yl)-5-((6-oxo-6-(4-(4-(8-(piperidin-4-yl)quinoxalin-2-yl)-1H-pyrazol-1-yl)piperidin-1-yl)hexyl)amino)isoindoline-1,3-dione] gave an IC50 (MV4;11 cells; [1]) of 0.01 to 0.1 µM, an IC50 (MV4;11 cells; [2]) of less than 0.01 µM and an IC50 (MOLM-13 cells; [3]) of 0.01 to 0.1 µM. The IC50 (MOLM-13 cells; [4]) was less than 0.01 µM.

CN1CCC(c2cccc3ncc(-c4cnn(C5CCN(C(=O)CCCCCNc6ccc7c(c6)C(=O)N(C6CCC(=O)NC6=O)C7=O)CC5)c4)nc23)CC1 (stereo not drawn) [GS-045, 2-(2,6-Dioxopiperidin-3-yl)-5-((6-(4-(4-(8-(1-methylpiperidin-4-yl)quinoxalin-2-yl)-1H-pyrazol-1-yl)piperidin-1-yl)-6-oxohexyl)amino)isoindoline-1,3-dione] was tested, and the IC50 (MV4;11 cells; [1]) was 0.1 to 1 µM, the IC50 (MV4;11 cells; [2]) was less than 0.01 µM and the IC50 (MOLM-13 cells; [3]) was greater than 1 µM. It also gave an IC50 (MOLM-13 cells; [4]) of less than 0.01 µM.

Compound CN1CCN(c2cnn(C3CCN(C(=O)CCCCCNc4ccc5c(c4)C(=O)N(C4CCC(=O)NC4=O)C5=O)CC3)c2)CC1 (stereo not drawn) [GS-046, 2-(2,6-Dioxopiperidin-3-yl)-5-((6-(4-(4-(4-methylpiperazin-1-yl)-1H-pyrazol-1-yl)piperidin-1-yl)-6-oxohexyl)amino)isoindoline-1,3-dione] has an IC50 (MV4;11 cells; [1]) greater than 1 µM, an IC50 (MV4;11 cells; [2]) of 0.01 to 0.1 µM and an IC50 (MOLM-13 cells; [3]) of 0.1 to 1 µM. For the same compound, the IC50 (MOLM-13 cells; [4]) was 0.01 to 0.1 µM.

O=C1CCC(N2C(=O)c3ccc(NCCCCCC(=O)N4CCC(n5cc(N6CCOCC6)cn5)CC4)cc3C2=O)C(=O)N1 (stereo not drawn) [GS-047, 2-(2,6-Dioxopiperidin-3-yl)-5-((6-(4-(4-morpholino-1H-pyrazol-1-yl)piperidin-1-yl)-6-oxohexyl)amino)isoindoline-1,3-dione] was tested, and the IC50 (MV4;11 cells; [1]) was 0.1 to 1 µM, the IC50 (MV4;11 cells; [2]) was 0.01 to 0.1 µM and the IC50 (MOLM-13 cells; [3]) was 0.1 to 1 µM. It also gave an IC50 (MOLM-13 cells; [4]) of 0.01 to 0.1 µM.

Work on O=C1CCC(N2C(=O)c3ccc(NCCCCCC(=O)N4CCC(n5cc(N6CCCCC6)cn5)CC4)cc3C2=O)C(=O)N1 (stereo not drawn) [GS-048, 2-(2,6-Dioxopiperidin-3-yl)-5-((6-oxo-6-(4-(4-(piperidin-1-yl)-1H-pyrazol-1-yl)piperidin-1-yl)hexyl)amino)isoindoline-1,3-dione] yielded an IC50 (MV4;11 cells; [1]) of 0.01 to 0.1 µM, an IC50 (MV4;11 cells; [2]) of less than 0.01 µM and an IC50 (MOLM-13 cells; [3]) of 0.1 to 1 µM. The IC50 (MOLM-13 cells; [4]) was 0.01 to 0.1 µM.

O=C1CCC(N2C(=O)c3ccc(NCCCCCC(=O)N4CCC(n5cc(C6CCCCC6)cn5)CC4)cc3C2=O)C(=O)N1 (stereo not drawn) [GS-049, 5-((6-(4-(4-Cyclohexyl-1H-pyrazol-1-yl)piperidin-1-yl)-6-oxohexyl)amino)-2-(2,6-dioxopiperidin-3-yl)isoindoline-1,3-dione] gave an IC50 (MV4;11 cells; [1]) of 0.01 to 0.1 µM, an IC50 (MV4;11 cells; [2]) of 0.01 to 0.1 µM and an IC50 (MOLM-13 cells; [3]) of 0.01 to 0.1 µM. It also gave an IC50 (MOLM-13 cells; [4]) of less than 0.01 µM.

O=C1CCC(N2C(=O)c3ccc(NCCCCCC(=O)N4CCC(n5cc(-c6ccccc6)cn5)CC4)cc3C2=O)C(=O)N1 (stereo not drawn) [GS-050, 2-(2,6-Dioxopiperidin-3-yl)-5-((6-oxo-6-(4-(4-phenyl-1H-pyrazol-1-yl)piperidin-1-yl)hexyl)amino)isoindoline-1,3-dione] gave an IC50 (MV4;11 cells; 11 IC50) of less than 0.01 µM, an IC50 (MV4;11 cells; 11 IC50 gilteritinib) of less than 0.01 µM and an IC50 (MOLM-13 cells; read-out: MOLM-13 IC50) of 0.01 to 0.1 µM. It also gave an IC50 (MOLM-13 cells; read-out: MOLM-13 IC50 gilteritinib) of less than 0.01 µM.

O=C1CCC(N2C(=O)c3ccc(NCCCCCC(=O)N4CCC(n5cc(-c6ncccn6)cn5)CC4)cc3C2=O)C(=O)N1 (stereo not drawn) [GS-051, 2-(2,6-Dioxopiperidin-3-yl)-5-((6-oxo-6-(4-(4-(pyrimidin-2-yl)-1H-pyrazol-1-yl)piperidin-1-yl)hexyl)amino)isoindoline-1,3-dione] was tested, and the IC50 (MV4;11 cells; [1]) was 0.01 to 0.1 µM, the IC50 (MV4;11 cells; [2]) was less than 0.01 µM and the IC50 (MOLM-13 cells; [3]) was 0.1 to 1 µM. The IC50 (MOLM-13 cells; [4]) was 0.01 to 0.1 µM.
